# Source: patent US20020182594A1, “Chemomagnetic retrieval of CMV and CMV infected cells” (priority 2001, published 2002)
# Experiments:
# US28 [1] = target: T1, US28 (Human cytomegalovirus, UniProt P69332); test: Inhibition of binding of native chemokine ligands (fractalkine, eotaxin) to US28; set-up: species or system human CMV (HCMV); settings: native chemokine ligands such as fractalkine and eotaxin, among others
# chemokine receptors = test: Binding specificity among chemokine receptors tested
# US28 [2] = target: T1, US28; test: Binding affinity of fractalkine to US28; set-up: species or system human CMV (HCMV); settings: read-out: K1 (affinity of binding to US28)
# T1 sequence (P69332 whole entry): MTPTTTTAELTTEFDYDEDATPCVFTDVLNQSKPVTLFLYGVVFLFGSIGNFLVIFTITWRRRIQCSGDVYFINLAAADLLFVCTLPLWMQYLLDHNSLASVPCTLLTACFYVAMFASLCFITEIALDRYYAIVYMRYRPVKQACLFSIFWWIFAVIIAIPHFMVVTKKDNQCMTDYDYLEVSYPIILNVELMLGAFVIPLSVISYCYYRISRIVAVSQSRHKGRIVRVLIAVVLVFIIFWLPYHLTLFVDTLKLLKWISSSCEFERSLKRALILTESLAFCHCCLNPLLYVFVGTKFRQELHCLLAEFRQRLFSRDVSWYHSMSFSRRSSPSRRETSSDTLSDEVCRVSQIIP
Molecule,inhibition of the binding of native chemokine ligands to US28 (US28 [1]),specificity of binding to US28 among all chemokine receptors tested (chemokine receptors),Ki (US28 [2])
"CCN1CCC[C@H]1CNC(=O)c1c(OC)ccc(I)c1O [S(−)-IBZM, S(−)-3-Iodo-2-hydroxy-6-methoxy-N[(1-ethyl-2-pyrrolidinyl)methyl]benzamide]",effective inhibitor,bind specifically to US28,–
"fractalkine: the CX3C chemokine, expressed on certain endothelial cell surfaces and dendritic cells; native ligand of US28 (protein, UniProt P78423 25-397, looked up) Fractalkine: QHHGVTKCNITCSKMTSKIPVALLIHYQQNQASCGKRAIILETRQHRLFCADPKEQWVKDAMQHLDRQAAALTRNGGTFEKQIGEVKPRTTPAAGGMDESVVLEPEATGESSSLEPTPSSQEAQRALGTSPELPTGVTGSSGTRLPPTPKAQDGGPVGTELFRVPPVSTAATWQSSAPHQPGPSLWAEAKTSEAPSTQDPSTQASTASSPAPEENAPSEGQRVWGQGQSPRPENSLEREEMGPVPAHTDAFQDWGPGSMAHVSVVPVSSEGTPSREPVASGSWTPKAEEPIHATMDPQRLGVLITPVPDAQAATRRQAVGLLAFLGLLFCLGVAMFTYQSLQGCPRKMAGEMAEGLRYIPRSCGSNSYVLVPV",–,–,~0.05 nM
